# Source: the supplement of paper PMC4932681
# Legend:
# ZR-75-1 [1] = experiment: relative IC50 (midpoint of fitted logistic curve, plateau may be below 50% inhibition; CellTiter-Glo viability); higher = less potent; details: 72 h
# In short: (§1)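 Drug sensitivity score, relative IC50 as the curve midpoint, and top-dose inhibition were derived from logistic dose–response fits in the Breeze pipeline. These fits used CellTiter-Glo viability, read on a PHERAstar and normalised to vehicle-only and positive controls. Breast cancer cell lines and resistant derivatives had been incubated for 72 h at 37 °C in 384-well plates holding library drugs at five concentrations spanning a 10 000-fold range. Resistant lines were grown in medium with 1 μM of the selecting drug.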
# BT-474 [2] = experiment: as above; details: 72 h
# In short: as §1
# MCF-7 [3] = experiment: as above; details: 72 h
# In short: as §1
# BT-474 Tam1 [4] = experiment: as above; details: 4-OH-tamoxifen in medium 1 µM; 72 h
# In short: as §1
# ZR-75-1 Tam1 [5] = experiment: as above; details: 4-OH-tamoxifen in medium 1 µM; 72 h
# In short: as §1
# T-47D Tam2 [6] = experiment: as above; details: 4-OH-tamoxifen in medium 1 µM; 72 h
# In short: as §1
# T-47D [7] = experiment: as above; details: 72 h
# In short: as §1
# MCF-7 Tam1 [8] = experiment: as above; details: 4-OH-tamoxifen in medium 1 µM; 72 h
# In short: as §1
# ZR-75-1 Tam2 [9] = experiment: as above; details: 4-OH-tamoxifen in medium 1 µM; 72 h
# In short: as §1
# ZR-75-1 [10] = experiment: drug sensitivity score (DSS) (DSS (dimensionless)); higher = more sensitive; extreme values may be limits of the assay; details: 72 h
# In short: as §1
# BT-474 Tam2 [11] = experiment: as above; details: 4-OH-tamoxifen in medium 1 µM; 72 h
# In short: as §1
# BT-474 [12] = experiment: as above; details: 72 h
# In short: as §1
# MCF-7 [13] = experiment: as above; details: 72 h
# In short: as §1
# BT-474 Tam1 [14] = experiment: as above; details: 4-OH-tamoxifen in medium 1 µM; 72 h
# In short: as §1
# ZR-75-1 Tam1 [15] = experiment: as above; details: 4-OH-tamoxifen in medium 1 µM; 72 h
# In short: as §1
# T-47D Tam1 [16] = experiment: as above; details: 4-OH-tamoxifen in medium 1 µM; 72 h
# In short: as §1
# T-47D Tam2 [17] = experiment: as above; details: 4-OH-tamoxifen in medium 1 µM; 72 h
# In short: as §1
# T-47D [18] = experiment: as above; details: 72 h
# In short: as §1
# MCF-7 Tam1 [19] = experiment: as above; details: 4-OH-tamoxifen in medium 1 µM; 72 h
# In short: as §1
# ZR-75-1 Tam2 [20] = experiment: as above; details: 4-OH-tamoxifen in medium 1 µM; 72 h
# In short: as §1
# BT-474 Tam2 [21] = experiment: relative IC50 (midpoint of fitted logistic curve, plateau may be below 50% inhibition; CellTiter-Glo viability); higher = less potent; details: 4-OH-tamoxifen in medium 1 µM; 72 h
# In short: as §1
# T-47D Tam1 [22] = experiment: as above; details: 4-OH-tamoxifen in medium 1 µM; 72 h
# In short: as §1
relative IC50 (BT-474 [2]; 4-OH-tamoxifen in medium 0 µM) [nM],relative IC50 (BT-474 [2]; 4-OH-tamoxifen in medium 1 µM) [nM],relative IC50 (MCF-7 [3]; 4-OH-tamoxifen in medium 1 µM) [nM],relative IC50 (BT-474 Tam1 [4]) [nM],relative IC50 (T-47D Tam2 [6]) [nM],relative IC50 (T-47D [7]; 4-OH-tamoxifen in medium 0 µM) [nM],relative IC50 (MCF-7 Tam1 [8]) [nM],relative IC50 (BT-474 Tam2 [21]) [nM],relative IC50 (MCF-7 [3]; 4-OH-tamoxifen in medium 0 µM) [nM],relative IC50 (T-47D [7]; 4-OH-tamoxifen in medium 1 µM) [nM],relative IC50 (T-47D Tam1 [22]) [nM],Structure (SMILES),relative IC50 (ZR-75-1 [1]; 4-OH-tamoxifen in medium 1 µM) [nM],relative IC50 (ZR-75-1 Tam1 [5]) [nM],relative IC50 (ZR-75-1 Tam2 [9]) [nM],drug sensitivity score (ZR-75-1 [10]; 4-OH-tamoxifen in medium 0 µM),drug sensitivity score (ZR-75-1 [10]; 4-OH-tamoxifen in medium 1 µM),drug sensitivity score (BT-474 Tam2 [11]),drug sensitivity score (BT-474 [12]; 4-OH-tamoxifen in medium 0 µM),drug sensitivity score (BT-474 [12]; 4-OH-tamoxifen in medium 1 µM),drug sensitivity score (MCF-7 [13]; 4-OH-tamoxifen in medium 0 µM),drug sensitivity score (MCF-7 [13]; 4-OH-tamoxifen in medium 1 µM),drug sensitivity score (BT-474 Tam1 [14]),drug sensitivity score (ZR-75-1 Tam1 [15]),drug sensitivity score (T-47D Tam1 [16]),drug sensitivity score (T-47D Tam2 [17]),drug sensitivity score (T-47D [18]; 4-OH-tamoxifen in medium 0 µM),drug sensitivity score (T-47D [18]; 4-OH-tamoxifen in medium 1 µM),drug sensitivity score (MCF-7 Tam1 [19]),drug sensitivity score (ZR-75-1 Tam2 [20]),relative IC50 (ZR-75-1 [1]; 4-OH-tamoxifen in medium 0 µM) [nM]
8.49,5.9,16.9,32.3,10.9,5.91,> 1000,–,–,–,–,CC(=O)O[C@H]1C(=O)[C@@]2(C)[C@H]([C@H](OC(=O)c3ccccc3)[C@]3(O)C[C@H](OC(=O)[C@H](O)[C@@H](NC(=O)c4ccccc4)c4ccccc4)C(C)=C1C3(C)C)[C@]1(OC(C)=O)CO[C@@H]1C[C@@H]2O [Paclitaxel],> 1000,> 1000,> 1000,6.96,0,3.11,11.5,15.5,7.01,7.14,4.68,0,7.9,7.33,13,1.38,0,0,–
> 1000,> 1000,> 1000,> 1000,> 1000,–,> 1000,> 1000,> 1000,> 1000,–,Cn1c(Nc2ccc(C(F)(F)F)cc2)nc2cc(Oc3ccnc(-c4ncc(C(F)(F)F)[nH]4)c3)ccc21 [RAF265],> 1000,> 1000,–,0,0,0,0,0,0,0,0,0,8.26,0,0.294,0,0,0.002,> 1000
> 10000,51.5,–,1540,> 10000,> 10000,> 10000,–,–,> 10000,–,CN1CCN(c2nc(C3=C(c4c[nH]c5ccccc45)C(=O)NC3=O)c3ccccc3n2)CC1 [Sotrastaurin],> 10000,> 10000,> 10000,0,0,1.44,0,10.6,0.517,0,6.13,0,0,0,0,0,0,0,> 10000
2640,3340,1270,3120,1380,768,–,4180,1450,1530,1100,CCCCC(=O)OCC(=O)[C@]1(O)Cc2c(O)c3c(c(O)c2[C@@H](O[C@H]2C[C@H](NC(=O)C(F)(F)F)[C@H](O)[C@H](C)O2)C1)C(=O)c1c(OC)cccc1C3=O [Valrubicin],1320,1280,1130,8.2,5.85,2.37,2.57,4.06,5.32,8.1,4.26,7.34,7.66,6.34,7.72,5.96,0.994,9.1,554
3.77,9.7,13.8,48.1,44.2,113,–,24.4,9.94,–,69.2,CC[C@]1(O)C[C@@H]2CN(CCc3c([nH]c4ccccc34)[C@@](C(=O)OC)(c3cc4c(cc3OC)N(C)[C@H]3[C@@](O)(C(=O)OC)[C@H](OC(C)=O)[C@]5(CC)C=CCN6CC[C@]43[C@@H]65)C2)C1 [Vinblastine],174,214,78.9,11.9,2.61,17.1,13.2,21.5,12.8,12.5,13.1,1.94,6.59,8.2,2.77,0.561,0.0008,3.58,4.23
2310,1090,1330,2430,3060,2630,–,1890,1430,3670,1650,O=C(CCCCCCC(=O)Nc1ccccc1)NO [Vorinostat],3660,1650,2270,1.99,1.27,7.23,5.53,10.5,8.23,8.2,6.36,3.29,5.24,2.19,5.73,4.3,0.897,2.51,2900
> 10000,> 10000,–,> 10000,> 10000,> 10000,> 10000,–,> 10000,> 10000,–,Oc1nc(-c2ccc(C(F)(F)F)cc2)nc2c1CSCC2 [XAV-939],> 10000,> 10000,–,0,0,3.71,0,0,0,0.115,0,0,3.2,0,0,0,0,0.39,> 10000
